{"source": "paper PMC5552880", "about": "“The Bitter Taste Receptor TAS2R16 Achieves High Specificity and Accommodates Diverse Glycoside Ligands by using a Two-faced Binding Pocket” (Scientific Reports, 2017)", "key": {"wild-type TAS2R16": {"molecular_target": "T1, wild-type TAS2R16 (Homo sapiens, UniProt Q9NYV7)", "T1 construct": "FLAG (N); expressed in transfected cells; host or cells: HEK-293T", "T1 sequence (Q9NYV7 1-291)": "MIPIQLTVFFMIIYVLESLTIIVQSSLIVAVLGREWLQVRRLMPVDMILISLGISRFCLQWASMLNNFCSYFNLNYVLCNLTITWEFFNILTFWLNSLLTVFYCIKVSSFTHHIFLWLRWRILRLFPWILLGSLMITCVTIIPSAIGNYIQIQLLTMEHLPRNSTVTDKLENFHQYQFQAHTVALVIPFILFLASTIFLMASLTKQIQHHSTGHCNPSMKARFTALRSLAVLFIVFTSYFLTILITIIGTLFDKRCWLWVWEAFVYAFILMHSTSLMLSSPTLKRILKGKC", "experiment": "Ca2+ flux assay, HEK-293T cells expressing wild-type TAS2R16 and Gα16gust44", "assay_type": "cell-based", "conditions": "for activation of TAS2R16 (agonist screen): compounds screened at 10 mM, wild-type TAS2R16, Fig. 2a", "protocol": "(§1) The TAS2R16 mutation library was tested for function using a Ca^2+ flux assay as described previously. Later screens of individual TAS2R16 mutant clones used 4-nitrophenyl-β-D-glucopyranoside. Briefly, HEK-293T cells, in poly-lysine coated, black 384-well plates with clear bottoms (Costar), were transfected with the TAS2R16 mutation library, and a plasmid expressing a Gα16 chimera containing the last 44 amino acids of rat gustducin (Gα16gust44). Cells were incubated for 22 hours at 37 °C then washed twice with a calcium indicator dye in HBSS containing 20 mM HEPES (Calcium 4 Assay kit, Molecular Devices), incubated with HBSS for 1.5 hr, then moved to a Flexstation II-384 (Molecular Devices) set at 32 °C. […] Concentrations for mutation library screening were chosen to be approximately 2 to 3 times higher than the EC50 values for the ligands to maximize the sensitivity of detecting decreases in signaling due to the mutation in each clone.\n(§2) For Ca^2+ flux assays, the value of fluorescence at 30 seconds after ligand addition (the time of peak signal for wild-type TAS2R16) was used as the maximum value. […] Raw data obtained from surface expression and flux experiments were normalized to the values for wild-type TAS2R16 on each plate. Data sets were analyzed and represented as percentage over baseline signal. Mean and standard deviation values were calculated for each clone from replicate assay data.\n(§3) Ligand dose-response data was analyzed with Graphpad Prism 5 software. Data was baseline subtracted and then fit using a sigmoidal dose-response (variable slope) equation."}, "W261G TAS2R16": {"molecular_target": "T2, W261G TAS2R16 (Homo sapiens, UniProt Q9NYV7, W261G)", "T2 construct": "FLAG (N); expressed in transfected cells; host or cells: HEK-293T", "T2 sequence (Q9NYV7 whole entry W261G)": "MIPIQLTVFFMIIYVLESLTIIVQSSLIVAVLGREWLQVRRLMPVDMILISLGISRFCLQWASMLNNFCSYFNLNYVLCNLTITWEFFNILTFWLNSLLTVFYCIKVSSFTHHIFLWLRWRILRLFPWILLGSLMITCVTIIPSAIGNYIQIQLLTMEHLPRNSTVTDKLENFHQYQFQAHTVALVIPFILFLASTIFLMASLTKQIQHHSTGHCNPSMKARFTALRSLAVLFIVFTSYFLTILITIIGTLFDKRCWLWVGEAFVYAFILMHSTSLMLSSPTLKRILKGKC", "experiment": "Ca2+ flux assay, mutation library clone W261G", "assay_type": "cell-based", "conditions": "W261G TAS2R16, relative to wild-type, Fig. 5A", "protocol": "as §1\n(§4) For Ca^2+ flux assays, the value of fluorescence at 30 seconds after ligand addition (the time of peak signal for wild-type TAS2R16) was used as the maximum value. […] Data sets were analyzed and represented as percentage over baseline signal. Mean and standard deviation values were calculated for each clone from replicate assay data."}, "W261A TAS2R16": {"molecular_target": "T3, W261A TAS2R16 (Homo sapiens, UniProt Q9NYV7, W261A)", "T3 construct": "FLAG (N); expressed in transfected cells; host or cells: HEK-293T", "T3 sequence (Q9NYV7 1-291 W261A)": "T1 sequence (Q9NYV7 1-291) with W261A", "experiment": "Ca2+ flux assay, W261A TAS2R16 variant", "assay_type": "cell-based", "conditions": "for activation of W261A variant: W261A TAS2R16, relative to wild-type; for decrease in EC50 with W261 mutation compared to WT: W261 to alanine or glycine vs WT", "protocol": "as §1, §2, §3"}, "N96A TAS2R16": {"molecular_target": "T4, N96A TAS2R16 (Homo sapiens, UniProt Q9NYV7, N96A)", "T4 construct": "FLAG (N); expressed in transfected cells; host or cells: HEK-293T", "T4 sequence (Q9NYV7 whole entry N96A)": "as the sequence (Q9NYV7 whole entry W261G) above, with N96A, G261W counted along it", "experiment": "Ca2+ flux assay, N96A TAS2R16 variant", "assay_type": "cell-based", "conditions": "Fig. 7 dose-response", "protocol": "as §1, §4\n(§5) Ligand dose-response data was analyzed with Graphpad Prism 5 software. […]"}, "S108T TAS2R16": {"molecular_target": "T5, S108T TAS2R16 (Homo sapiens, UniProt Q9NYV7, S108T)", "T5 construct": "FLAG (N); expressed in transfected cells; host or cells: HEK-293T", "T5 sequence (Q9NYV7 1-291 S108T)": "T1 sequence (Q9NYV7 1-291) with S108T", "experiment": "Ca2+ flux assay, mutation library clone S108T", "assay_type": "cell-based", "conditions": "library screening concentrations", "protocol": "as §1, §2"}, "N96T TAS2R16": {"molecular_target": "T6, N96T TAS2R16 (Homo sapiens, UniProt Q9NYV7, N96T)", "T6 construct": "FLAG (N); expressed in transfected cells; host or cells: HEK-293T", "T6 sequence (Q9NYV7 whole entry N96T)": "as the sequence (Q9NYV7 whole entry W261G) above, with N96T, G261W counted along it", "experiment": "Ca2+ flux assay, N96T TAS2R16 variant", "assay_type": "cell-based", "conditions": "Fig. 7 dose-response", "protocol": "as §1, §4, §5"}, "S228T TAS2R16": {"molecular_target": "T7, S228T TAS2R16 (Homo sapiens, UniProt Q9NYV7, S228T)", "T7 construct": "FLAG (N); expressed in transfected cells; host or cells: HEK-293T", "T7 sequence (Q9NYV7 1-291 S228T)": "T1 sequence (Q9NYV7 1-291) with S228T", "experiment": "Ca2+ flux assay, mutation library clone S228T", "assay_type": "cell-based", "conditions": "library screening concentrations", "protocol": "as §1, §2"}, "TAS2R16 [1]": {"tested_on": "TAS2R16", "conditions": "disaccharides; cited from earlier work"}, "TAS2R43": {"tested_on": "TAS2R43", "conditions": "cited from earlier work"}, "TAS2R16 [2]": {"tested_on": "TAS2R16", "conditions": "cited from earlier work"}, "TAS2R38": {"tested_on": "TAS2R38", "conditions": "cited from earlier work"}, "C79A TAS2R16": {"molecular_target": "T8, C79A TAS2R16 (Homo sapiens, UniProt Q9NYV7, C79A)", "T8 construct": "FLAG (N); expressed in transfected cells; host or cells: HEK-293T", "T8 sequence (Q9NYV7 whole entry C79A)": "as the sequence (Q9NYV7 whole entry W261G) above, with C79A, G261W counted along it", "experiment": "Ca2+ flux assay, C79A TAS2R16 variant", "assay_type": "cell-based", "conditions": "Figure S3", "protocol": "as §1, §4"}, "[3]": {"conditions": "Fig. 5b dose-response, wild-type TAS2R16, read-out: EC50 (WT)"}, "[4]": {"conditions": "Fig. 5b dose-response, W261A TAS2R16"}, "[5]": {"conditions": "Fig. 2d dose-response, wild-type TAS2R16, HEK-293T, read-out: EC50"}}, "note": "Numbering of substitutions follows the chain as printed. Entries after “also recorded” stand apart in the source; their conditions may differ. Read-outs that look alike come from different tables or passages of the source.", "data": [{"molecule": "C=CCC(=NOS(=O)(=O)O)S[C@@H]1O[C@H](CO)[C@@H](O)[C@H](O)[C@H]1O", "note": "(stereo in doubt) [sinigrin]", "values": [{"measurement": "activation of wild-type TAS2R16", "setting": "wild-type TAS2R16; wild-type TAS2R16, HEK-293T", "result": "activation"}]}, {"molecule": "O=[N+]([O-])c1ccc(O[C@@H]2O[C@H](CO)[C@@H](O)[C@H](O)[C@H]2O)cc1", "note": "[4-NP-β-glucoside, 4-nitrophenyl-β-D-glucopyranoside]", "values": [{"measurement": "EC50", "setting": "wild-type TAS2R16; [3]", "result": 4900, "unit": "µM"}, {"measurement": "activation of W261G variant", "setting": "W261G TAS2R16", "result": "higher than wild-type"}, {"measurement": "EC50", "setting": "W261A TAS2R16; [4]", "result": 1800, "unit": "µM"}, {"measurement": "activation of W261A variant", "setting": "W261A TAS2R16", "result": "strongly activated; also recorded: higher than wild-type; also recorded: increased the activation"}, {"measurement": "decrease in EC50 with W261 mutation compared to WT", "setting": "W261A TAS2R16", "result": "~ 4 fold"}]}, {"molecule": "O=[N+]([O-])c1ccc(O[C@@H]2O[C@H](CO)[C@@H](O)[C@H](O)[C@@H]2O)cc1", "note": "[4-NP-β-mannoside, 4-nitrophenyl-β-D-mannopyranoside]", "values": [{"measurement": "EC50", "setting": "wild-type TAS2R16; [3]", "result": 800, "unit": "µM"}, {"measurement": "EC50", "setting": "wild-type TAS2R16; Fig. 6 comparative dose-response, wild-type TAS2R16, read-out: EC50 (WT)", "result": 1200, "unit": "µM"}, {"measurement": "EC50", "setting": "wild-type TAS2R16; Fig. 7 dose-response, wild-type TAS2R16, read-out: EC50 (WT)", "result": 1100, "unit": "µM"}, {"measurement": "EC50", "setting": "wild-type TAS2R16; [5]", "result": 650, "unit": "µM"}, {"measurement": "lower EC50 than 4-NP-β-glucoside", "setting": "wild-type TAS2R16; wild-type TAS2R16, Fig. 6A", "result": 4, "unit": "fold"}, {"measurement": "EC50", "setting": "N96A TAS2R16", "result": 1000, "unit": "µM"}, {"measurement": "Ca2+ flux signaling value", "setting": "S108T TAS2R16", "result": "103 % of wild-type"}, {"measurement": "EC50", "setting": "W261A TAS2R16; [4]", "result": 200, "unit": "µM"}, {"measurement": "activation of W261A variant", "setting": "W261A TAS2R16", "result": "strongly activated; also recorded: increased the activation"}, {"measurement": "decrease in EC50 with W261 mutation compared to WT", "setting": "W261A TAS2R16", "result": "~ 4 fold"}, {"measurement": "EC50", "setting": "N96T TAS2R16", "result": 200, "unit": "µM"}, {"measurement": "Ca2+ flux signaling value", "setting": "S228T TAS2R16", "result": "120 % of wild-type"}]}, {"molecule": "N#C[C@H](O[C@@H]1O[C@H](CO[C@@H]2O[C@H](CO)[C@@H](O)[C@H](O)[C@H]2O)[C@@H](O)[C@H](O)[C@H]1O)c1ccccc1", "note": "[amygdalin]", "values": [{"measurement": "activation of TAS2R16", "setting": "TAS2R16 [1]", "result": "activation"}]}, {"molecule": "CCCCCCO[C@@H]1O[C@H](CO)[C@@H](O)[C@H](O)[C@H]1O", "note": "[hexyl-glucoside, hexyl-β-D-glucopyranoside]", "values": [{"measurement": "EC50", "setting": "wild-type TAS2R16; [5]", "result": 2100, "unit": "µM"}, {"measurement": "Ca2+ flux signaling value", "setting": "S108T TAS2R16", "result": "122 % of wild-type"}, {"measurement": "Ca2+ flux signaling value", "setting": "S228T TAS2R16", "result": "122 % of wild-type"}]}, {"molecule": "OC[C@H]1O[C@@H](Sc2ccccc2)[C@H](O)[C@@H](O)[C@@H]1O", "note": "[phenyl-β-D-thioglucopyranoside]", "values": [{"measurement": "activation of TAS2R16 (agonist screen)", "setting": "wild-type TAS2R16", "result": "moderate to robust activation"}, {"measurement": "activation of wild-type TAS2R16", "setting": "wild-type TAS2R16; wild-type TAS2R16, HEK-293T", "result": "activation"}]}, {"molecule": "OC[C@H]1O[C@@H](Oc2ccccc2)[C@H](O)[C@@H](O)[C@@H]1O", "note": "[phenyl-β-glucoside, phenyl-β-D-glucoside]", "values": [{"measurement": "EC50 (WT)", "setting": "wild-type TAS2R16; Fig. 5b dose-response, wild-type TAS2R16", "result": "high"}, {"measurement": "activation of wild-type TAS2R16", "setting": "wild-type TAS2R16; wild-type TAS2R16, HEK-293T", "result": "substantially weaker activation"}, {"measurement": "EC50 (W261A)", "setting": "W261A TAS2R16; [4]", "result": "high"}]}, {"molecule": "CCCN(CCC)S(=O)(=O)c1ccc(C(=O)O)cc1", "note": "[probenecid]", "values": [{"measurement": "action on TAS2R43", "setting": "TAS2R43", "result": "allosteric inhibitor"}, {"measurement": "action on TAS2R16", "setting": "TAS2R16 [2]", "result": "allosteric inhibitor"}, {"measurement": "action on TAS2R38", "setting": "TAS2R38", "result": "allosteric inhibitor"}]}, {"molecule": "CC(=O)N[C@H]1[C@H](Oc2ccccc2)O[C@H](CO)[C@@H](O)[C@@H]1O", "note": "[β-glucosaminide, phenyl-N-acetyl-β-D-glucosaminide]", "values": [{"measurement": "EC50", "setting": "wild-type TAS2R16; [5]", "result": 2500, "unit": "µM"}, {"measurement": "activation of TAS2R16 (agonist screen)", "setting": "wild-type TAS2R16", "result": "moderate to robust activation"}, {"measurement": "activation, % of wild-type activation", "setting": "C79A TAS2R16", "result": "90 % of wild-type"}, {"measurement": "Ca2+ flux signaling value", "setting": "S108T TAS2R16", "result": "132 % of wild-type"}, {"measurement": "Ca2+ flux signaling value", "setting": "S228T TAS2R16", "result": "105 % of wild-type"}]}, {"molecule": "gentiobiose", "values": [{"measurement": "activation of TAS2R16", "setting": "TAS2R16 [1]", "result": "activation"}]}]}
